Like-named read-outs stand apart in the source and are kept apart here. Non-standard residues stand in square brackets, D forms with d. Residues, ends and D or L forms follow the SMILES beside them. *: point of attachment. pY = N[C@@H](Cc1ccc(OP(=O)(O)O)cc1)C(=O)O; Caffeoyl = O=C(/C=C/c1ccc(O)c(O)c1)*
Assays:
PTPN11(SH2dom.N-term.) = target: T1, PTPN11(SH2dom.N-term.) (Homo sapiens, UniProt Q06124); assay type: binding; conditions: primary screen, 10 μM
T1 construct: SH2dom.N-term. denotes SH2 domain closest to N-terminus of protein; made in house; host or cells: HEK293 (transient transfection, unpurified extract)
T1 sequence (Q06124 6-102 limits assumed): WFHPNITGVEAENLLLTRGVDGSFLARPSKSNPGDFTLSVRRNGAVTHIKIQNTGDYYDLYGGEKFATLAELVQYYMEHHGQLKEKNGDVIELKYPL

STAT3 = target: T2, STAT3 (Homo sapiens, UniProt P40763); assay: biochemical; assay type: binding; conditions: for percent of DMSO vehicle control at 10 µM / remaining activity at 10 µM: read-out: percent of DMSO vehicle control
T2 construct: made in house; host or cells: HEK293 (transient transfection), unpurified extract

[1] = target: T3, STAT3(E616del)-nonphosphorylated (Homo sapiens, UniProt P40763, DEL616-616); assay: biochemical; assay type: binding; conditions: for percent of DMSO vehicle control at 10 µM / remaining activity at 10 µM: read-out: percent of DMSO vehicle control
T3 construct: made in house; host or cells: HEK293 (transient transfection), unpurified extract, dephosphorylated by endogenous phosphatases

[2] = target: T4, STAT3(N567K)-nonphosphorylated (Homo sapiens, UniProt P40763, N567K); assay: biochemical; assay type: binding; conditions: for percent of DMSO vehicle control at 10 µM / remaining activity at 10 µM: read-out: percent of DMSO vehicle control
T4 construct: made in house; host or cells: HEK293 (transient transfection), unpurified extract, dephosphorylated by endogenous phosphatases

[3] = target: T5, STAT3(N647I)-nonphosphorylated (Homo sapiens, UniProt P40763, N647I); assay: biochemical; assay type: binding; conditions: for percent of DMSO vehicle control at 10 µM / remaining activity at 10 µM: read-out: percent of DMSO vehicle control
T5 construct: made in house; host or cells: HEK293 (transient transfection), unpurified extract, dephosphorylated by endogenous phosphatases

[4] = target: T6, STAT3(Y640F)-nonphosphorylated (Homo sapiens, UniProt P40763, Y640F); assay: biochemical; assay type: binding; conditions: for percent of DMSO vehicle control at 10 µM / remaining activity at 10 µM: read-out: percent of DMSO vehicle control
T6 construct: made in house; host or cells: HEK293 (transient transfection), unpurified extract, dephosphorylated by endogenous phosphatases

STAT5B = target: T7, STAT5B (Homo sapiens, UniProt P51692); assay: biochemical; assay type: binding; conditions: for percent of DMSO vehicle control at 10 µM / remaining activity at 10 µM: read-out: percent of DMSO vehicle control
T7 construct: made in house; host or cells: HEK293 (transient transfection), unpurified extract
T7 sequence (P51692 1-787): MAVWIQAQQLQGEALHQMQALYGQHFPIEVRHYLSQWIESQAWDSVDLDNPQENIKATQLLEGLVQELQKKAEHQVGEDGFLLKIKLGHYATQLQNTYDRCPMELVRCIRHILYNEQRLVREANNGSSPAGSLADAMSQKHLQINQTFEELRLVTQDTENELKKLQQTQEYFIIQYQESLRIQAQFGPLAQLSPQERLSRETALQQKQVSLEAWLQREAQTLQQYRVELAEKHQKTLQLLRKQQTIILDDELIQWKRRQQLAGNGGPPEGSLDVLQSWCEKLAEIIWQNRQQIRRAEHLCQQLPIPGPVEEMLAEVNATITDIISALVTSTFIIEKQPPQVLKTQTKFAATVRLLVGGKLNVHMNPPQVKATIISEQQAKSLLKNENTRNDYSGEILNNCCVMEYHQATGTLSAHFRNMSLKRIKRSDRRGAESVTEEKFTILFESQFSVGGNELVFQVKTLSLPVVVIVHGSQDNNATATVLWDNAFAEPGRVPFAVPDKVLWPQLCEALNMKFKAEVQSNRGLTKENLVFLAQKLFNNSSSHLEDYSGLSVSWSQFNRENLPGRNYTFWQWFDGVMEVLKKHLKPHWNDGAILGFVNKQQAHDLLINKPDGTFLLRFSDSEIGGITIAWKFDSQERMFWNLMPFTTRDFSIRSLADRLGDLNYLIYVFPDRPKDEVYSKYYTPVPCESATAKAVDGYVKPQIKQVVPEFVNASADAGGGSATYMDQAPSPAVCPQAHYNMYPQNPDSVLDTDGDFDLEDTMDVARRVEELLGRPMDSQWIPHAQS

ZAP70(SH2dom1.dom2.) = target: T8, ZAP70(SH2dom1.dom2.) (Homo sapiens, UniProt P43403); assay: biochemical; conditions: for remaining activity at 10 µM: read-out: percent of DMSO vehicle control
T8 sequence (P43403 1-254 limits assumed): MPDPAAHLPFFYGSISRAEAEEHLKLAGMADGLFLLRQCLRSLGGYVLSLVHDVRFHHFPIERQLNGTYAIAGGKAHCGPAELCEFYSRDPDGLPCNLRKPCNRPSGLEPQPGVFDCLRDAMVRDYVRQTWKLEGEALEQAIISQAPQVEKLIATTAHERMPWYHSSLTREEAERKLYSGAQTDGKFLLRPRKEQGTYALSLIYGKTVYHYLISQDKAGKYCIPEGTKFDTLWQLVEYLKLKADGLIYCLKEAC

| Compound | percent of DMSO vehicle control (PTPN11(SH2dom.N-term.)) | percent of DMSO vehicle control at 10 µM (STAT3) | percent of DMSO vehicle control at 10 µM [1] | percent of DMSO vehicle control at 10 µM [2] | percent of DMSO vehicle control at 10 µM [3] | percent of DMSO vehicle control at 10 µM [4] | percent of DMSO vehicle control at 10 µM (STAT5B) | remaining activity at 10 µM (ZAP70(SH2dom1.dom2.)) | remaining activity at 10 µM (STAT3; primary screen, 10 μM) | remaining activity at 10 µM ([1]; primary screen, 10 μM) | remaining activity at 10 µM ([2]; primary screen, 10 μM) | remaining activity at 10 µM ([3]; primary screen, 10 μM) | remaining activity at 10 µM ([4]; primary screen, 10 μM) | remaining activity at 10 µM (STAT5B; primary screen, 10 μM) | also measured |
| --- | --- | --- | --- | --- | --- | --- | --- | --- | --- | --- | --- | --- | --- | --- | --- |
| CC[C@H](C)[C@H](NC(=O)[C@H](CCC(=O)O)NC(=O)[C@H](CCC(=O)O)NC(=O)[C@H](Cc1ccc(OP(=O)(O)O)cc1)NC(C)=O)C(=O)N[C@@H](CCC(=O)O)C(N)=O [Ac-pYEEIE-NH2] (Ac-[pY]EEIE-NH2) | 116.6% | – | – | – | – | – | – | – | – | – | – | – | – | – | percent of DMSO vehicle control (STAT3; primary screen, 10 μM): 151.4%; percent of DMSO vehicle control ([1]; primary screen, 10 μM): 86.7±0.4%; percent of DMSO vehicle control ([2]; primary screen, 10 μM): 94.9±0.8%; percent of DMSO vehicle control ([3]; primary screen, 10 μM): 97.9±8.6%; percent of DMSO vehicle control ([4]; primary screen, 10 μM): 156.0%; percent of DMSO vehicle control (STAT5B; primary screen, 10 μM): 21.8±4.7% |
| CC(=O)N[C@@H](Cc1ccc(CP(=O)(O)O)cc1)C(=O)NC1(C(=O)N[C@@H](CC(N)=O)C(=O)NCCCc2c(O)ccc3ccccc23)CCCCC1 [CGP78850] | 125.2±9.1% | 80.9 ± 6.4% | 71.8 ± 6.4% | 78.3 ± 2% | 80.6 ± 2.9% | 118 ± 3.3% | 89.6 ± 6.1% | 91.6 ± 5.3% | – | – | – | – | – | – | – |
| CC[C@H](C)[C@H](NC(=O)[C@H](CCC(=O)O)NC(=O)[C@H](CCC(=O)O)NC(=O)[C@H](Cc1ccc(OP(=O)(O)O)cc1)NC(=O)/C=C/c1ccc(O)c(O)c1)C(=O)N[C@@H](CCC(=O)O)C(=O)O [Caffeic acid-pYEEIE] (Caffeoyl-[pY]EEIE-OH) | 92.8±10.0% | 102 ± 22.8% | 85.5 ± 0.3% | 91 ± 2.3% | 85.3 ± 2.1% | 131 ± 28.4% | 19.3 ± 2.8% | 32.3 ± 1.6% | – | – | – | – | – | – | Kd (STAT5B): 4200 ± 2800 nM; Kd (ZAP70(SH2dom1.dom2.)): 6900 ± 3.8 nM |
| O=C(CCl)Nc1cccc(CNC(=O)[C@H](Cc2ccc(OP(=O)(O)O)cc2)NC(=O)Cc2ccc(F)cc2)c1 [MN551] | 85.0±0.9% | – | – | – | – | – | – | 33.5% | 67.8% | 203% | 86.5 ± 6.2% | 81.2% | 49 ± 5.7% | 49.1 ± 7.6% | – |
| NC(=O)CC[C@H](NC(=O)[C@@H]1CC[C@@H]2CCN(C(=O)CCCCCC#Cc3cccc4c3CN(C3CCC(=O)NC3=O)C4=O)C[C@H](NC(=O)c3cc4cc(C(F)(F)P(=O)(O)O)ccc4[nH]3)C(=O)N21)C(=O)NC(c1ccccc1)c1ccccc1 (stereo partly shown) [SD-36] | 89.9±0.7% | 0.1 ± 0.1% | 0% | 0.1% | 0% | 0.2 ± 0.6% | 5.7 ± 0.1% | 95.6 ± 1.3% | – | – | – | – | – | – | Kd (STAT3; dose-response): 21 nM; Kd ([1]; dose-response): 28 ± 11 nM; Kd ([2]; dose-response): 30 ± 11 nM; Kd ([3]; dose-response): 63 ± 23 nM; Kd ([4]; dose-response): 80 ± 27 nM; Kd (STAT5B; dose-response): 2030 ± 820 nM |
| CC(=O)N1CC[C@H]2CC[C@@H](C(=O)N[C@@H](CCC(N)=O)C(=O)NC(c3ccccc3)c3ccccc3)N2C(=O)[C@@H](NC(=O)c2cc3cc(C(F)(F)P(=O)(O)O)ccc3[nH]2)C1 [SI-109] | 109.2% | 0.4 ± 0.1% | 0.1% | 0.2% | 0.5 ± 0.1% | 5.8 ± 3.7% | 109% | 129% | – | – | – | – | – | – | Kd (STAT3): 15 nM; Kd [1]: 8.7 ± 3.4 nM; Kd [2]: 12 ± 1.8 nM; Kd [3]: 25 ± 8.3 nM; Kd [4]: 78 ± 44 nM; Kd (STAT5B): 18000 ± 4000 nM |
| C/C(=C\C(=O)N[C@H](C(=O)N1CCC[C@H]1C(=O)N(c1ccccc1)c1ccc(I)cc1)C(C)(C)C)c1ccc(OP(=O)(O)O)cc1 [STAT6-IN-1] | 76.7±1.3% | – | – | – | – | – | – | 51.4% | 0% | 0% | 0% | 0% | 0% | 0% | Kd (STAT3; dose-response, read-out: KD): 180 ± 0.01 nM; Kd ([1]; dose-response, read-out: KD): 140 ± 35 nM; Kd ([2]; dose-response, read-out: KD): 190 ± 107 nM; Kd ([3]; dose-response, read-out: KD): 800 ± 120 nM; Kd ([4]; dose-response, read-out: KD): 102 ± 44 nM; Kd (STAT5B; dose-response, read-out: KD): 16 ± 3.2 nM |
| CC(C)(C)[C@H](NC(=O)/C=C/c1ccc(OP(=O)(O)O)cc1)C(=O)N1CCC[C@H]1C(=O)N(c1ccccc1)c1ccc(I)cc1 [STAT6-IN-3] | 73.9±34.6% | – | – | – | – | – | – | 60.7 ± 32.9% | 0.7 ± 0.2% | 0.4 ± 0.4% | 0.2 ± 0.3% | 2.1 ± 3.7% | 2.4 ± 6.1% | 0% | Kd (STAT3; dose-response, read-out: KD): 370 ± 162 nM; Kd ([1]; dose-response, read-out: KD): 280 ± 120 nM; Kd ([2]; dose-response, read-out: KD): 500 ± 200 nM; Kd ([3]; dose-response, read-out: KD): 1500 ± 750 nM; Kd ([4]; dose-response, read-out: KD): 95 ± 40 nM; Kd (STAT5B; dose-response, read-out: KD): 69 ± 42 nM |
| O=C(COc1ccc2cc(C(=O)Nc3ccccc3)ccc2c1)NCc1ccc(OP(=O)(O)O)c(OP(=O)(O)O)c1 [Stafib-1] | 79.2±4.6% | – | – | – | – | – | – | 58 ± 19.5% | 66.9 ± 10% | 135% | 97.5 ± 16.8% | 78.6 ± 15.4% | 75.3 ± 26% | 0% | – |
